Laboratory results taken from ChEMBL document CHEMBL5252581, “Using a Bioactive Eremophila-Derived Serrulatane Scaffold to Generate a Unique Carbamate Library for Anti-infective Evaluations” (J Nat Prod, 2023).

Experiments:
[1] = Cytotoxicity against HEK293 cells assessed as inhibition of cell growth at 80 uM incubated for 72 hrs by alamar blue dye based fluorescence assay relative to control; type: toxicity; conditions: human
[2] = tested on: Human immunodeficiency virus 1; assay: Reversal of HIV-1 latency infected in GFP-fused human J-Lat 10.6 cells assessed as inhibition of 160 nM PMA-induced HIV production at 100 ug/ml incubated for 24 hrs by flow cytometry analysis relative to control; type: functional; conditions: Human immunodeficiency virus 1, J-Lat 10.6
[3] = Selectivity index, ratio of IC50 for cytotoxicity against HEK293 cells to IC50 for antimalarial activity against chloroquine sensitive Plasmodium falciparum 3D7; type: toxicity, cell-based; conditions: human, read-out: Ratio IC50
Haemonchus contortus [4] = assay: Anthelmintic activity against third stage larvae of Haemonchus contortus assessed as reduction in larval motility at 50 uM measured at 168 hrs by microscope based analysis relative to control; type: functional; parameters: scale not given: the % may be the effect or the level left
Haemonchus contortus [5] = assay: Anthelmintic activity against Haemonchus contortus assessed as induction of skinny phenotype at 50 uM measured at 168 hrs by microscope based analysis; type: functional
[6] = Selectivity index, ratio of IC50 for cytotoxicity against HEK293 cells to IC50 for antimalarial activity against multidrug resistant Plasmodium falciparum Dd2; type: toxicity, cell-based; conditions: human, read-out: Ratio IC50
Plasmodium falciparum [7] = assay: Antimalarial activity against multidrug resistant Plasmodium falciparum Dd2 assessed as parasite growth inhibition incubated for 72 hrs by DAPI staining method; type: functional, organism-based; conditions: Dd2, 72 h
Haemonchus contortus [8] = assay: Anthelmintic activity against Haemonchus contortus assessed as inhibition of L4 development at 50 uM measured at 168 hrs by microscope based analysis relative to control; type: functional
Haemonchus contortus [9] = assay: Anthelmintic activity against third stage larvae of Haemonchus contortus assessed as reduction in larval motility measured at 168 hrs by microscope based analysis; type: functional, organism-based
Plasmodium falciparum [10] = assay: Antimalarial activity against chloroquine sensitive Plasmodium falciparum 3D7 assessed as parasite growth inhibition incubated for 72 hrs by DAPI staining method; type: functional, organism-based; conditions: 3D7, 72 h
[11] = Resistance index, ratio of IC50 for antimalarial activity against multidrug resistant Plasmodium falciparum Dd2 to IC50 for antimalarial activity against chloroquine sensitive Plasmodium falciparum 3D7; type: toxicity
[12] = Cytotoxicity against HEK293 cells assessed as inhibition of cell growth incubated for 72 hrs by alamar blue dye based fluorescence assay; type: toxicity; conditions: human

SMILES | inhibition at 72 h, 80 µM [1] [%] | inhibition at 100 µg/mL [2] [%] | selectivity ratio [3] | Activity (Haemonchus contortus [4]) [%] | Activity (Haemonchus contortus [5]) [%] | selectivity ratio [6] | IC50 (Plasmodium falciparum [7]) [µM] | inhibition at 50 µM (Haemonchus contortus [8]) [%] | IC50 (Haemonchus contortus [9]) [nM] | IC50 (Plasmodium falciparum [10]) [µM] | Ratio IC50 [11] | IC50 at 72 h [12] [µM]
COC(=O)c1cc2c(c(OC)c1OC)[C@H](C)C[C@@H](OC(=O)Nc1cccc(Cl)c1)[C@H]2[C@@H](C)CCC=C(C)C | 42 | 37.2 | 8.8 | 39.1 | 0 | 8.7 | 9.2 | 7.1 | 1600 | 9.1 | 1 | –
COC(=O)c1cc2c(c(OC)c1OC)[C@H](C)C[C@@H](OC(=O)Nc1ccc(OC)cc1)[C@H]2[C@@H](C)CCC=C(C)C | 26 | 22.9 | 8.6 | 18.3 | 0 | 7.9 | 10.1 | 2 | > 50000 | 9.3 | 1.1 | –
COC(=O)c1cc2c(c(OC)c1OC)[C@H](C)C[C@@H](OC(=O)Nc1cc(C(F)(F)F)cc(C(F)(F)F)c1)[C@H]2[C@@H](C)CCC=C(C)C | 34 | 39.1 | 17.5 | 16.9 | 0 | 6.9 | 11.6 | 3.6 | 800 | 4.6 | 2.5 | –
COC(=O)c1cc2c(c(OC)c1OC)[C@H](C)C[C@@H](OC(=O)Nc1ccc([N+](=O)[O-])cc1)[C@H]2[C@@H](C)CCC=C(C)C | 52 | 43.5 | 5 | 30.4 | 60 | 7.5 | 10.6 | 4.8 | 6400 | 7.6 | 1.3 | –
C[C@H]1[C@@H](O)O[C@@H]2O[C@@]3(C)CC[C@H]4[C@H](C)CC[C@@H]1[C@@]24OO3 [ARTENIMOL] | – | – | > 6680 | – | – | > 3080 | – | – | – | – | 2.2 | > 4
CCN(CC)CCCC(C)Nc1ccnc2cc(Cl)ccc12 (stereo unspecified) [CHLOROQUINE] | – | – | – | – | – | – | – | – | – | – | – | > 10
C[C@](C#N)(COc1cc(C#N)ccc1C(F)(F)F)NC(=O)c1ccc(SC(F)(F)F)cc1 [MONEPANTEL] | – | – | – | 99.2 | 0 | – | – | 98 | 200 | – | – | –
CO/N=C1\C[C@]2(C[C@@H]3C[C@@H](C/C=C(\C)C[C@@H](C)/C=C/C=C4\CO[C@@H]5[C@H](O)C(C)=C[C@@H](C(=O)O3)[C@]45O)O2)O[C@H](/C(C)=C/C(C)C)[C@H]1C [MOXIDECTIN] | – | – | – | 88.2 | 0 | – | – | 89.7 | 3000 | – | – | –
COc1ccc(C[C@H](N)C(=O)N[C@H]2[C@@H](O)[C@H](n3cnc4c(N(C)C)ncnc43)O[C@@H]2CO)cc1 [PUROMYCIN] | – | – | 15.5 | – | – | 8.2 | 0.0814 | – | – | 0.0429 | 1.9 | 0.664
CCc1nc(N)nc(N)c1-c1ccc(Cl)cc1 [PYRIMETHAMINE] | – | – | > 1010 | – | – | – | – | – | – | – | > 1010 | > 10
